Counter-ions that a name gives are not always drawn. Bounds are passed on as bounds.

What all share (format): biochemical
Assay [1] concerns the target T1, MMP-2FL (full length Gelatinase A) (Homo sapiens, UniProt P08253).
T1 sequence (P08253 110-660): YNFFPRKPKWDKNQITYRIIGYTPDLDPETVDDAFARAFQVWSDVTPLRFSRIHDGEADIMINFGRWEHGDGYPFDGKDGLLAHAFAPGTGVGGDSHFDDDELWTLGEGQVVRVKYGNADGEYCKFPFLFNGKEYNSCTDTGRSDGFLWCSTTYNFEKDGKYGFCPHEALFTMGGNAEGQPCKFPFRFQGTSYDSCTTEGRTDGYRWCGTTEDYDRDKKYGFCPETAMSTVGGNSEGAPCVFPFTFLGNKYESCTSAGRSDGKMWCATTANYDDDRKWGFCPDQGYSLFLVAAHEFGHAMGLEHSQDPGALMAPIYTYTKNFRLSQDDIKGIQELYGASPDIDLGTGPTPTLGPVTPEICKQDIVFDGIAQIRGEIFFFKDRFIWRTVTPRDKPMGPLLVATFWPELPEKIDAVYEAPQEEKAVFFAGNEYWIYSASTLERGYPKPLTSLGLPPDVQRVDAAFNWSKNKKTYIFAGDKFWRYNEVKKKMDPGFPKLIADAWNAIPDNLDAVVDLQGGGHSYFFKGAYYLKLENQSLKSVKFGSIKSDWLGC
The assay can be described thus: Thiopeptolide substrate hydrolysis assay, MMP-2FL. Conditions: HEPES pH 7.0, 22° C., read-out: IC50 (μM) Versus Certain MMPs: MMP-02 FL. An excerpt: (§1) The invention compounds of Formula I have been evaluated in standard assays for their ability to inhibit the catalytic activity of various MMP enzymes.
(§2) Thiopeptolide substrates show virtually no decomposition or hydrolysis at or below neutral pH in the absence of a matrix metalloproteinase enzyme.
(§3) Several representative compounds have been evaluated for their ability to inhibit various matrix metalloproteinase enzymes.

The target of assay [2] is T2, MMP-7FL (full length matrilysin) (Homo sapiens, UniProt P09237).
T2 sequence (P09237 95-267): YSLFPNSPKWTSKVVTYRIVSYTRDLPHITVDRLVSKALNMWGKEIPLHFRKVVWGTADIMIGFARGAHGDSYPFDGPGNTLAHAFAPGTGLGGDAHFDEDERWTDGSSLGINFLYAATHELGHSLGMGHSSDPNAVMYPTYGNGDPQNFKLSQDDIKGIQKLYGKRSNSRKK
The assay can be described thus: Thiopeptolide substrate hydrolysis assay, MMP-7FL. The conditions noted are these: HEPES pH 7.0, 22° C., read-out: IC50 (μM) Versus Certain MMPs: MMP-07 FL.
From the text: as §1, §2, §3

Assay [3] concerns the target MMP-9FL (full length Gelatinase B) (Homo sapiens, UniProt P14780). The assay can be described thus: Thiopeptolide substrate hydrolysis assay, MMP-9FL. The conditions noted are these: HEPES pH 7.0, 22° C., read-out: IC50 (μM) Versus Certain MMPs: MMP-09 FL.
From the text: as §1, §2, §3

Assay [4] addresses MMP-14CD (catalytic domain of MMP-14) (Homo sapiens, UniProt P50281). In words: Thiopeptolide substrate hydrolysis assay, MMP-14CD. Conditions: HEPES pH 7.0, 22° C., read-out: IC50 (μM) Versus Certain MMPs: MMP-14 CD.
From the text: as §1, §2, §3

Sequence of MMP-9FL (full length Gelatinase B) (P14780 94-707, species assumed): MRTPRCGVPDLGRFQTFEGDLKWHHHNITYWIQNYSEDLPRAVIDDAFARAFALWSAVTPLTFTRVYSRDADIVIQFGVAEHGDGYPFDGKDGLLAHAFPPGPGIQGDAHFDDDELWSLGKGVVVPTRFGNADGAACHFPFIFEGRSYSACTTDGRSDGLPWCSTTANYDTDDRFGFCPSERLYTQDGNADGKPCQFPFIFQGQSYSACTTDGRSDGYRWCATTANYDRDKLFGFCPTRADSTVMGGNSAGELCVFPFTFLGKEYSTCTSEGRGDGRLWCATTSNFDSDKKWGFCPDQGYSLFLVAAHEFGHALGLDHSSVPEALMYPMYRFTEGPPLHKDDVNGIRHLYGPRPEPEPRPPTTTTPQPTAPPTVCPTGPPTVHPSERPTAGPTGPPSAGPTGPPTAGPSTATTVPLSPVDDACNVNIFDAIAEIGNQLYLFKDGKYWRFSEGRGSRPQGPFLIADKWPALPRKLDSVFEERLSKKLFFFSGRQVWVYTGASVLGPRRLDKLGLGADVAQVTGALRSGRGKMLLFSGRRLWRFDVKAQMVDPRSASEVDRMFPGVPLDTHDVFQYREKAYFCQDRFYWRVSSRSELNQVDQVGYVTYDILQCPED

As to `O=C(NCc1ccncc1)c1cn2c(=O)n(Cc3ccccc3)c(=O)cc2s1` [Example 9, 6-Benzyl-5,7-dioxo-6,7-dihydro-5H-thiazolo[3,2-c]pyrimidine-2-carboxylic acid(pyridin-4-ylmethyl)-amide hydrochloride], the IC50 in assay [1], in assay [2], in assay [3] and in assay [4] was more than 100 µM in each case.

On to `Cc1c(=O)n(Cc2ccccc2)c(=O)n2cc(C(=O)NCc3cccc(F)c3)sc12` [Example 10, 6-Benzyl-8-methyl-5,7-dioxo-6,7-dihydro-5H-thiazolo[3,2-c]pyrimidine-2-carboxylic acid 3-fluoro-benzylamide], for which the IC50 was more than 100 µM in assay [1], 21 µM in assay [2], more than 30 µM in assay [3] and more than 30 µM in assay [4].

On to `O=C(NCc1ccccc1)c1cn2c(=O)n(Cc3ccncc3)c(=O)cc2s1` [Example 15, 6-(4-Pyridylmethyl)-5,7-dioxo-6,7-dihydro-5H-thiazolo[3,2-c]pyrimidine-2-carboxylic acid benzylamide hydrochloride], for which the IC50 in assay [1], in assay [2], in assay [3] and in assay [4] was more than 100 µM throughout.

In the case of `O=C(NCc1ccncc1)C1Cn2c(cc(=O)n(Cc3ccccc3)c2=O)S1` (stereo not shown) [Example 22, 6-Benzyl-5,7-dioxo-2,3,6,7-tetrahydro-5H-thiazolo[3,2-c]pyrimidine-2-carboxylic acid(pyridin-4-ylmethyl)-amide], the IC50 in assay [1], in assay [2], in assay [3] and in assay [4] was more than 100 µM in each case.

For the compound `O=C(OCc1ccccc1)C1C[S+]([O-])c2cc(=O)n(Cc3ccccc3)c(=O)n21` (stereo not shown) [Example 23, 6-Benzyl-1,5,7-trioxo-1,2,3,5,6,7-hexahydro-114-thiazolo[3,2-c]pyrimidine-3-carboxylic acid benzyl ester], the concentration for half-maximal inhibition (IC50) in assay [1], in assay [2], in assay [3] and in assay [4] was more than 100 µM throughout.

For the compound `Cc1cccc(CNC(=O)c2cn3c(=O)n(Cc4ccccc4)c(=O)c(C)c3s2)c1` [Example 28, 6-Benzyl-8-methyl-5,7-dioxo-6,7-dihydro-5H-thiazolo[3,2-c]pyrimidine-2-carboxylic acid 3-methyl-benzylamide], the IC50 in assay [1] is more than 30 µM; in assay [2] it was 71 µM; in assay [3], more than 30 µM; in assay [4], more than 100 µM.

For `Cc1c(=O)n(Cc2ccccc2)c(=O)n2cc(C(=O)NCc3ccc(F)cc3)sc12` [Example 30, 6-Benzyl-8-methyl-5,7-dioxo-6,7-dihydro-5H-thiazolo[3,2-c]pyrimidine-2-carboxylic acid 4-fluoro-benzylamide], the IC50 in assay [1], in assay [2], in assay [3] and in assay [4] was more than 30 µM each time.

Consider `COc1ccc(CNC(=O)c2cn3c(=O)n(Cc4ccccc4)c(=O)c(C=O)c3s2)cc1` [Example 32, 6-Benzyl-8-formyl-5,7-dioxo-6,7-dihydro-5H-thiazolo[3,2-c]pyrimidine-2-carboxylic acid 4-methoxy-benzylamide], for which the IC50 was more than 100 µM in assay [1], more than 30 µM in assay [2], more than 100 µM in assay [3] and more than 30 µM in assay [4].

As to `Cc1c(=O)n(Cc2ccccc2)c(=O)n2cc(C(=O)NCc3ccncc3)sc12` [Example 36, 6-Benzyl-8-methyl-5,7-dioxo-6,7-dihydro-5H-thiazolo[3,2-c]pyrimidine-2-carboxylic acid(pyridin-4-ylmethyl)-amide hydrochloride], the IC50 in assay [1] was more than 100 µM; in assay [2] it was more than 100 µM; in assay [3] it was more than 30 µM; in assay [4] it was more than 100 µM.

With `Cc1c(=O)n(Cc2ccccc2)c(=O)n2cc(C(=O)NCc3ccc(F)c(F)c3)sc12` [Example 43, 6-Benzyl-8-methyl-5,7-dioxo-6,7-dihydro-5H-thiazolo[3,2-c]pyrimidine-2-carboxylic acid 3,4-difluoro-benzylamide], the IC50 was more than 30 µM in assay [1], more than 30 µM in assay [2], more than 30 µM in assay [3] and more than 100 µM in assay [4].

For the compound `Cc1c(=O)n(Cc2ccccc2)c(=O)n2cc(C(=O)NCc3cccnc3)sc12` [Example 44, 6-benzyl-8-methyl-5,7-dioxo-6,7-dihydro-5H-thiazolo[3,2-c]pyrimidine-2-carboxylic acid(pyridin-3-ylmethyl)-amide], the half-maximal inhibitory concentration (IC50) in assay [1] was more than 100 µM; in assay [2] it was more than 100 µM; in assay [3] it was more than 30 µM; in assay [4] it was more than 100 µM.

Consider `COc1ccc(CNC(=O)c2cn3c(=O)n(Cc4ccccc4)c(=O)c(C)c3s2)cc1F` [Example 46, 6-Benzyl-8-methyl-5,7-dioxo-6,7-dihydro-5H-thiazolo[3,2-c]pyrimidine-2-carboxylic acid 3-fluoro-4-methoxy-benzylamide], for which the IC50 is more than 100 µM in assay [1], more than 30 µM in assay [2], more than 100 µM in assay [3] and more than 100 µM in assay [4].

As to `Cc1ccc(CNC(=O)c2cn3c(=O)n(Cc4ccccc4)c(=O)c(C)c3s2)cc1` [Example 48, 6-Benzyl-8-methyl-5,7-dioxo-6,7-dihydro-5H-thiazolo[3,2-c]pyrimidine-2-carboxylic acid 4-methyl-benzylamide], the IC50 in assay [1] was more than 30 µM; in assay [2], 28 µM; in assay [3] it was more than 100 µM; in assay [4], more than 100 µM.

`Cc1c(=O)n(Cc2ccccc2)c(=O)n2cc(C(=O)NCc3ccc(C(F)(F)F)cc3)sc12` [Example 49, 6-Benzyl-8-methyl-5,7-dioxo-6,7-dihydro-5H-thiazolo[3,2-c]pyrimidine-2-carboxylic acid 4-trifluoromethyl-benzylamide]: the IC50 in assay [1] is more than 30 µM; in assay [2] it was more than 100 µM; in assay [3] it was more than 100 µM; in assay [4], more than 100 µM.

Regarding `Cc1c(=O)n(Cc2ccccc2)c(=O)n2cc(C(=O)NCc3ccc(Cl)cc3)sc12` [Example 50, 6-Benzyl-8-methyl-5,7-dioxo-6,7-dihydro-5H-thiazolo[3,2-c]pyrimidine-2-carboxylic acid 4-chloro-benzylamide], the IC50 in assay [1] is more than 30 µM; in assay [2], 31 µM; in assay [3], more than 100 µM; in assay [4], more than 100 µM.

For `Cc1c(=O)n(Cc2ccccc2)c(=O)n2cc(C(=O)NCc3ccc(OC(F)(F)F)cc3)sc12` [Example 51, 6-Benzyl-8-methyl-5,7-dioxo-6,7-dihydro-5H-thiazolo[3,2-c]pyrimidine-2-carboxylic acid 4-trifluoromethoxy-benzylamide], the IC50 was more than 30 µM in assay [1], more than 30 µM in assay [2], more than 100 µM in assay [3] and more than 100 µM in assay [4].

As to `COc1ccc(CNC(=O)c2cn3c(=O)n(Cc4ccc(C(=O)OCCN(C)C)cc4)c(=O)c(C)c3s2)cc1` [Example 57, 4-[2-(4-Methoxy-benzylcarbamoyl)-8-methyl-5,7-dioxo-7H-thiazolo[3,2c]pyrimidin-6-ylmethyl]-benzoic acid 2-dimethylamine-ethyl ester hydrochloride], the IC50 in assay [1], in assay [2], in assay [3] and in assay [4] was more than 30 µM each time.

For the compound `Cc1c(=O)n(Cc2ccc(C(=O)OCCN(C)C)cc2)c(=O)n2cc(C(=O)NCc3ccc(F)cc3)sc12` [Example 60, 4-[2-(4-Fluoro-benzylcarbamoyl)-8-methyl-5,7-dioxo-7H-thiazolo[3,2-c]pyrimidin-6-ylmethyl]-benzoic acid 2-dimethylamino-ethyl ester], the IC50 in assay [1], in assay [2], in assay [3] and in assay [4] was more than 100 µM each time.

Consider `Cc1c(=O)n(Cc2ccc(C(=O)OCCN(C)C)cc2)c(=O)n2cc(C(=O)NCc3ccncc3)sc12` [Example 63, 4-{8-Methyl-5,7-dioxo-2-[(pyridin-4-ylmethyl)-carbamoyl]-7H-thiazolo[3,2-c]pyrimidin-6-ylmethyl}-benzoic acid 2-dimethylamino-ethyl ester dihydrochloride], for which the IC50 in assay [1], in assay [2], in assay [3] and in assay [4] was more than 100 µM throughout.

Source of the values: patent US20060040957A1, “BICYCLIC PYRIMIDINE MATRIX METALLOPROTEINASE INHIBITORS” (priority 2001, published 2006).
